Assay [1] concerns the target T1, Chymotrypsinogen B (Homo sapiens, UniProt P17538). The assay is described as follows: Compound was tested for inhibitory activity against alpha-chymotrypsin.
In assay [2] the target is T1, Chymotrypsinogen B. As to the kind of experiment: Inhibitory potency was evaluated against alpha-chymotrypsin.

T1 sequence (P17538 34-164 limits assumed, other chains not shown): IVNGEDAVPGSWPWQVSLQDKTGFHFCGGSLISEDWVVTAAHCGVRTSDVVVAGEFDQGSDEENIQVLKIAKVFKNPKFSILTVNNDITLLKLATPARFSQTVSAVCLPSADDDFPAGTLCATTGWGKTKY
T1 sequence (P17538 167-263 limits assumed, other chains not shown): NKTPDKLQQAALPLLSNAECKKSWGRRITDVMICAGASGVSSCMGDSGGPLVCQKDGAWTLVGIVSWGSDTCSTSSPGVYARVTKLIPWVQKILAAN

For orientation: Ki means the dissociation constant of the complex between target and ligand, obtained from inhibition or displacement. Low values mean higher affinity, high ones lower affinity. In the case of `O=C(N[C@@H](Cc1ccccc1)[C@@H]1CO1)C1CCCN1C(=O)c1ccccc1` (single isomer, unassigned), in assay [1], the inhibitory constant (Ki) worked out at 820 µM.
`COC(=O)[C@@H](Cc1ccccc1)[C@@H]1CO1` (single isomer, unassigned) had a K inact/Ki in assay [2] of 27 M⁻¹ s⁻¹.

For the origin of these results see ChEMBL document CHEMBL1153649, “Peptidyl epoxides as inhibitors of -chymotrypsin: Remarkable change from irreversible to reversible competitive inhibitor as a consequence of the improvement of binding affinity” (Bioorg Med Chem Lett, 1996).
